Source: US11272709B2, “Amidine substituted benzoyl derivatives useful as herbicides” (Syngenta Participations AG, priority 2018, dated 2022)

Legend:
Format in all cases: in vivo
Settings in all cases: 500 g/h, evaluated after 13 days
[1] = system: Amaranthus retoflexus (AMARE); experiment: Pre-emergence herbicidal glasshouse test, Amaranthus retoflexus (AMARE)
Protocol: (§1) Seeds of a variety of test species are sown in standard soil in pots (Lolium perenne (LOLPE), Amaranthus retoflexus (AMARE), Abutilon theophrasti (ABUTH), Setaria faberi (SETFA), Echinochloa crus-galli (ECHCG), Ipomoea hederacea (IPOHE)). After cultivation for one day (pre-emergence) or after 8 days cultivation (post-emergence) under controlled conditions in a glasshouse (at 24/16° C., day/night; 14 hours light; 65% humidity), the plants are sprayed with an aqueous spray solution derived from the formulation of the technical active ingredient in acetone/water (50:50) solution containing 0.5% Tween 20 (polyoxyethelyene sorbitan monolaurate, CAS RN 9005-64-5). Compounds are applied at 500 g/h unless otherwise indicated. The test plants are then grown in a glasshouse under controlled conditions in a glasshouse (at 24/16° C., day/night; 14 hours light; 65% humidity) and watered twice daily. After 13 days for pre and post-emergence, the test is evaluated for the percentage damage caused to the plant. The biological activities are shown in the following table on a five point scale (5=80-100%; 4=60-79%; 3=40-59%; 2=20-39%; 1=0-19%).

[2] = system: Abutilon theophrasti (ABUTH); experiment: Pre-emergence herbicidal glasshouse test, Abutilon theophrasti (ABUTH)
Protocol: as §1

[3] = system: Setaria faberi (SETFA); experiment: Pre-emergence herbicidal glasshouse test, Setaria faberi (SETFA)
Protocol: as §1

[4] = system: Echinochloa crus-galli (ECHCG); experiment: Pre-emergence herbicidal glasshouse test, Echinochloa crus-galli (ECHCG)
Protocol: as §1

[5] = system: Ipomoea hederacea (IPOHE); experiment: Pre-emergence herbicidal glasshouse test, Ipomoea hederacea (IPOHE)
Protocol: as §1

[6] = system: Amaranthus retoflexus (AMARE); experiment: Post-emergence herbicidal glasshouse test, Amaranthus retoflexus (AMARE)
Protocol: as §1

[7] = system: Abutilon theophrasti (ABUTH); experiment: Post-emergence herbicidal glasshouse test, Abutilon theophrasti (ABUTH)
Protocol: as §1

[8] = system: Setaria faberi (SETFA); experiment: Post-emergence herbicidal glasshouse test, Setaria faberi (SETFA)
Protocol: as §1

[9] = system: Echinochloa crus-galli (ECHCG); experiment: Post-emergence herbicidal glasshouse test, Echinochloa crus-galli (ECHCG)
Protocol: as §1

[10] = system: Ipomoea hederacea (IPOHE); experiment: Post-emergence herbicidal glasshouse test, Ipomoea hederacea (IPOHE)
Protocol: as §1

Row | SMILES | PRE Application AMARE, percentage damage (five point scale) [1] | PRE Application ABUTH, percentage damage (five point scale) [2] | PRE Application SETFA, percentage damage (five point scale) [3] | PRE Application ECHCG, percentage damage (five point scale) [4] | PRE Application IPOHE, percentage damage (five point scale) [5] | POST Application AMARE, percentage damage (five point scale) [6] | POST Application ABUTH, percentage damage (five point scale) [7] | POST Application SETFA, percentage damage (five point scale) [8] | POST Application ECHCG, percentage damage (five point scale) [9] | POST Application IPOHE, percentage damage (five point scale) [10]
1 | Cc1c(C(=O)Nc2nnnn2C)ccc(C(F)(F)F)c1N=CN(C)C [Compound 1.017] | 5 (5=80-100%) | 5 (5=80-100%) | 5 (5=80-100%) | 5 (5=80-100%) | 5 (5=80-100%) | 5 (5=80-100%) | 5 (5=80-100%) | 5 (5=80-100%) | 5 (5=80-100%) | 5 (5=80-100%)
2 | Cc1c(C(=O)Nc2nnnn2C)ccc(S(C)(=O)=O)c1/N=C/N(C)C [Compound 1.025, 3-[(E)-dimethylaminomethyleneamino]-2-methyl-4-methylsulfonyl-N-(1-methyltetrazol-5-yl)benzamide] | 5 (5=80-100%) | 5 (5=80-100%) | 5 (5=80-100%) | 5 (5=80-100%) | 5 (5=80-100%) | 5 (5=80-100%) | 5 (5=80-100%) | 5 (5=80-100%) | 5 (5=80-100%) | 5 (5=80-100%)
3 | CCN(C)C=Nc1c(S(C)(=O)=O)ccc(C(=O)Nc2nnnn2C)c1C [Compound 1.027] | 5 (5=80-100%) | 5 (5=80-100%) | 5 (5=80-100%) | 5 (5=80-100%) | 5 (5=80-100%) | 5 (5=80-100%) | 5 (5=80-100%) | 5 (5=80-100%) | 5 (5=80-100%) | 5 (5=80-100%)
4 | CCN(C=Nc1c(S(C)(=O)=O)ccc(C(=O)Nc2nnnn2C)c1C)CC [Compound 1.031] | 5 (5=80-100%) | 5 (5=80-100%) | 5 (5=80-100%) | 5 (5=80-100%) | 4 (4=60-79%) | 5 (5=80-100%) | 5 (5=80-100%) | 5 (5=80-100%) | 5 (5=80-100%) | 5 (5=80-100%)
5 | CN(C)C=Nc1c(Cl)ccc(C(=O)Nc2nnnn2C)c1Cl [Compound 1.041] | 5 (5=80-100%) | 5 (5=80-100%) |  | 5 (5=80-100%) | 5 (5=80-100%) | 5 (5=80-100%) | 5 (5=80-100%) | 5 (5=80-100%) | 5 (5=80-100%) | 5 (5=80-100%)
